How the values were obtained:
Plasma stability = assay type: in vitro ADME; conditions: mouse plasma; read-out: Plasma Stability (t1/2)
Text: (§1) There is no cause for concern at this stage since there are multiple strategies and reagents for enhancing aqueous solubility for animal in vivo studies (Savjani, K. T., A. K. Gajjar and J. K. Savjani, 2012, ISRN Pharm 2012: 195727.). […] While target tissue exposure is dependent on free, unbound fractions in the plasma, plasma protein binding can protect compounds from hepatic metabolism. Thus, in vivo metabolism and excretion are often determined by a balance between these two properties. In vivo half-life is a complicated property impacted upon by multiple factors and is difficult to predict. […] While these numbers are somewhat low for a drug candidate, they are acceptable for proof of concept tool molecules which can be given multiple times per day and at higher doses to saturate metabolism.

Rosi cells [1] = assay: Cytotoxicity assay (calcein-AM); assay type: cell-based, human; conditions: Homo sapiens; Rosi; 48 hours; read-out: Log [μM] EC50 (converted)
Protocol: HS-5, HEK-293, MCF7, MDA-MB-231 and Rosi cells were seeded in 96-well optical bottom tissue culture plates (Corning, New York) at a density of 2.5×10^3 cells/well. […] Control cells were given fresh media. After 48 hours the media were aspirated and plates were washed with warmed Dulbecco's phosphate-buffered saline (DPBS) with calcium and magnesium (Sigma-Aldrich, catalog #D1283). Cells were stained with 3 μM calcein-AM (AAT Bioquest, Pleasanton, California, catalog #22002) in DPBS for 30 minutes in the dark at 37° C. Plates were immediately read with a Biotek fluorescent plate reader (excitation 485 nm, emission 520 nm). The cytotoxicity assays were performed at least three times, each time with six replicates per condition.

HS-5 cells = assay: Cytotoxicity assay (calcein-AM); assay type: cell-based; conditions: HS-5, 48 hours
Protocol: (§2) HS-5, HEK-293, MCF7, MDA-MB-231 and Rosi cells were seeded in 96-well optical bottom tissue culture plates (Corning, New York) at a density of 2.5×10^3 cells/well. After 24 hours, the media were changed to media containing LB-100 (Cayman Chemical Company, Ann Arbor, Michigan) or Compound 2 at various concentrations (50-0.31 μM). Control cells were given fresh media. After 48 hours the media were aspirated and plates were washed with warmed Dulbecco's phosphate-buffered saline (DPBS) with calcium and magnesium (Sigma-Aldrich, catalog #D1283). Cells were stained with 3 μM calcein-AM (AAT Bioquest, Pleasanton, California, catalog #22002) in DPBS for 30 minutes in the dark at 37° C. Plates were immediately read with a Biotek fluorescent plate reader (excitation 485 nm, emission 520 nm). The cytotoxicity assays were performed at least three times, each time with six replicates per condition.

HEK-293 cells = assay: Cytotoxicity assay (calcein-AM); assay type: cell-based; conditions: Homo sapiens, HEK293; HEK-293; 48 hours; read-out: Log [μM] EC50 (converted)
Protocol: as §2

MDA-MB-231 cells [2] = assay: Cytotoxicity assay (calcein-AM); assay type: cell-based, human; conditions: MDA-MB-231, 48 hours
Protocol: as §2

MCF7 cells [3] = assay: Cytotoxicity assay (calcein-AM); assay type: cell-based, human; conditions: MCF7, 48 hours
Protocol: as §2

rhLCMT-1 = target: T1, rhLCMT-1 (Homo sapiens, UniProt Q9UIC8); assay: rhLCMT-1 activity assay (dot immunoblot); assay type: biochemical; conditions: each inhibitor 50 μM; 20 μM SAM; 37° C. for 30 minutes
T1 construct: purchased SignalChem (Richmond, British Columbia, Canada)
Protocol: Recombinant human LCMT-1 (rhLCMT-1) and rhPP2Ac were obtained from SignalChem (Richmond, British Columbia, Canada). Methyltransferase assays were performed with 100 ng rhLCMT-1 and 91.62 ng rhPP2Ac (2:1 molar ratio) (28) in reaction buffer containing 20 mM Tris (pH 8.0), 50 mM NaCl, 1 mM EDTA. rhLCMT-1 was incubated with Compound 1 (Chemspace, San Jose, California), Compound 2 (Akos Consulting and Solutions, Amtsgericht, Freiburg, Germany) or sinefungin, a SAM analogue, (Active Motif, Carlsbad, California), each at 50 μM final concentration, for 10 minutes at room temperature. rhPP2Ac was added to the reactions with 20 μM (final concentration) SAM (New England Biolabs, Ipswich, Massachusetts, FIG. 9). […] Reactions were incubated at 37° C. for 30 minutes (FIG. 10). Because the inhibitors gave false positive results with the secondary reactions used in colorimetric and bioluminescent methyltansferase assays, LCMT-1 activity was assessed using dot immunoblots. Reactions were applied to nitrocellulose membranes (Cytiva, Marlborough, Massachusetts). […] Membranes were treated with infrared (IR)-dye anti-mouse antibody (Li-Cor, Lincoln, Nebraska, catalog #926-32210, 1:20,000 dilution) and densities were measured with Li-Cor Image Studio (version 5.2) software. rhLCMT-1 inhibition assays were performed three times, each time with five replicates for each condition.

Plasma protein binding = assay type: in vitro ADME; conditions: read-out: Plasma Protein Binding (bound fraction) (converted)
Text: as §1

MDA-MB-231 cells [4] = assay: Cell cycle analysis (BrdU flow cytometry); assay type: cell-based, human; conditions: 20 μM, 24 hours
Protocol: (§3) MCF7, MDA-MB-231 and Rosi cells were seeded in 6-well tissue culture plates (Celltreat) at a density of 5×10^5 cells per well. After 24 hours, the DMEM was changed to media containing 20 μM LB-100 or Compound 2. Control cells were given fresh media. After 24 hours, cells were labeled with 50 μM bromodeoxyuridine (BrdU, BioGems, Westlake Village, California, catalog #5911439). Cells were lifted with 0.25% trypsin, 2.21 mM ethylenediaminetetraacetic acid (Corning catalog #25-053-CI) after 4 hours and fixed with 70% ethanol overnight at 4° C. Cells were pelleted and cellular DNA was denatured with HCl. After neutralization with 1 M Tris, pH 8.5, cells were labeled with FITC-anti-BrdU (Biolegend, San Diego, California, catalog #364104, 5 μL/100 μL cell suspension) and 7-aminoactinomycin-D (7-AAD, Biolegend, catalog #420404, 1 μL/100 μL cell suspension). Cells were analyzed with a Becton-Dickinson FACSymphony™ flow cytometer. Cell cycle analyses were performed three times.

MCF7 cells [5] = assay: Cell cycle analysis (BrdU flow cytometry); assay type: cell-based, human; conditions: 20 μM, 24 hours
Protocol: as §3

Rosi cells [6] = assay: Cell cycle analysis (BrdU flow cytometry); assay type: cell-based, human; conditions: 20 μM, 24 hours
Protocol: as §3

[7] = Homo sapiens, read-out: Log [μM] EC50 (converted)

T1 sequence (Q9UIC8 whole entry): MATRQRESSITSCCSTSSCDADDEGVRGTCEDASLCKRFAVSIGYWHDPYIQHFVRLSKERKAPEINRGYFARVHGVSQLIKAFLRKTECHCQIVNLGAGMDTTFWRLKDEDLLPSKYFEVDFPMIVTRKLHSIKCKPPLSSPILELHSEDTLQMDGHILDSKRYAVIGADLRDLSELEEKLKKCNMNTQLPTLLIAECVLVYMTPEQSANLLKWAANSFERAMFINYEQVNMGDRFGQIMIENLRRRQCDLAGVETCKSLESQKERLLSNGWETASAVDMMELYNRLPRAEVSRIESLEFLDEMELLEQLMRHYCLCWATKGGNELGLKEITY

half-life (Plasma stability): > 3 h
fraction unbound (Plasma protein binding): 0.029
SMILES: COC(=O)c1c(NC(=O)c2ccccc2C)sc(C(=O)Nc2cccc(C)c2)c1C [Compound 2, methyl 4-methyl-2-[(2-methylbenzoyl)amino]-5-[[(3-methylphenyl)amino]carbonyl]-3-thiophenecarboxylate]
EC50 (Rosi cells [1]): 3.16 µM
EC50 (HS-5 cells; HS5, read-out: Log [μM] EC50 (converted)): 8.71 µM
concentration at which cytotoxicity was significant (HS-5 cells): 20 µM
EC50 (HEK-293 cells): 4.68 µM
EC50 (MDA-MB-231 cells [2]; [7]): 3.89 µM
concentration at which survival was significantly inhibited (MDA-MB-231 cells [2]): 25 µM
EC50 (MCF7 cells [3]; [7]): 2.24 µM
inhibition of survival (MCF7 cells [3]; concentrations tested 50-0.31 μM): Neither LB-100 nor Compound 2 significantly inhibited survival
methylation of rhPP2Ac by rhLCMT-1 (rhLCMT-1): inhibited methylation of rhPP2Ac to the same degree as the SAM analogue sinefungin
cell cycle effect (MDA-MB-231 cells [4]): did not change cell cycle dynamics
cell cycle effect (MCF7 cells [5]): did not change cell cycle dynamics
cell cycle effect (Rosi cells [6]): induced G0/G1 arrest

From patent publication US20250320190A1, “Novel Inhibitors of Leucine Carboxyl Methyltransferase-1 (LCMT-1) and Methods of Use Thereof” (Temple University-Of The Commonwealth System of Higher …, priority 2024, published 2025)
